Reference: patent US7655651B2, “Amide derivatives of 3-phenyl-dihydropyrimido[4,5-d]pyrimidinones, their manufacture and use as pharmaceutical agents” (Hoffmann-La Roche Inc., priority 2004, dated 2010)

Target: T1, Src (p60^c-src, partially purified) (Homo sapiens, UniProt P12931)
T1 construct: purchased UBI, Upstate Biotech, Inc
Assay: SRC-Inhibitor-Assay (time-resolved fluorescence kinase assay)
Type: biochemical
Details: ATP 5 μM; peptide 10 μM; enzyme 2.5 U/ml; enzyme pre-incubated with inhibitor 15 min at 15° C.
Description: The activity of the compounds according to this invention as inhibitors for the src-family tyrosine kinases was shown by using the following assay.
SRC-Inhibitor-Assay Parameters:
• whereby both peptides were synthesized by an optimized solid phase peptide synthesis protocol (Merrifield, Fed. Proc. Fed. Amer. Soc. Exp. Biol. 21 (1962) 412) on a Zinsser SMP350 peptide synthesizer. Shortly, the peptide was assembled on […] (22.8 μmol scale) of a Rink-Linker modified polystyrene solid phase by repeatedly conjugating an twenty fold excess of amino acids each protected by temporary piperidine labile Fmoc- and permanent acid labile tert-Bu-, BOC— and O-tert-Bu-groups depending on the side chain function. The substrate sequence AEEEIYGEFEAKKKK was N-terminal additionally mounted with the spacer amino acids Aminocaprylic acid and Glycin. After cleavage of the N-terminal temporary protecting group the still attached and protected peptide was labeled with a 1.5 fold amount of LightCycler-Red 640-N-hydroxy succinimide ester (purchased from Roche Diagnostics GmbH) and triethylamine. After 3 hrs. the resin washed with Dimethylformamide and Isopropanol until the eluates of the blue resin got colourless. […] The substrate was finally isolated by a preparative reverse phase HPLC purification. The purification yielded 12.2 mg RP-HPLC single peak pure blue material (lyophilisate). The identity was proven by MALDI mass spectroscopy [2720.0]. • Enzymes: Upstate Src (p60^c-src, partially purified) were purchased from UBI, Upstate Biotech, Inc.
Time-resolved Fluorescence Assay: Reader: Perkin Elmer, Wallac Viktor 1420-040 multilabel counter; Liquid handling system: Beckman Coulter, Biomek 2000.
ATP, Tween™ 20, 4-(2-hydroxyethyl)-1-piperazineethanesulfonic acid (HEPES) were purchased from Roche Molecular Biochemicals, MgCl2 and MnCl2 were purchased from Merck Eurolab, Tris(2-carboxyethyl)phosphine hydrochloride (TCEP) was purchased from Pierce, 384 Well low volume fluorescence plates was purchased from Falcon.
At first the enzyme is pre-incubated for 15 min. at 15° C. in aqueous solution with corresponding amounts of inhibitors according to this invention. Then the phosphorylation reaction is started by adding a reaction mixture, containing ATP, Peptide and PT66, and subsequent shaking. The proceeding of this reaction is immediately monitored using time resolved fluorescence spectroscopy in a suitable well plate reader.
The IC50-values can be obtained from the reaction rates by using a non-linear curve fit (XLfit software (ID Business Solution Ltd., Guilford, Surrey, UK))

T1 sequence (P12931 whole entry): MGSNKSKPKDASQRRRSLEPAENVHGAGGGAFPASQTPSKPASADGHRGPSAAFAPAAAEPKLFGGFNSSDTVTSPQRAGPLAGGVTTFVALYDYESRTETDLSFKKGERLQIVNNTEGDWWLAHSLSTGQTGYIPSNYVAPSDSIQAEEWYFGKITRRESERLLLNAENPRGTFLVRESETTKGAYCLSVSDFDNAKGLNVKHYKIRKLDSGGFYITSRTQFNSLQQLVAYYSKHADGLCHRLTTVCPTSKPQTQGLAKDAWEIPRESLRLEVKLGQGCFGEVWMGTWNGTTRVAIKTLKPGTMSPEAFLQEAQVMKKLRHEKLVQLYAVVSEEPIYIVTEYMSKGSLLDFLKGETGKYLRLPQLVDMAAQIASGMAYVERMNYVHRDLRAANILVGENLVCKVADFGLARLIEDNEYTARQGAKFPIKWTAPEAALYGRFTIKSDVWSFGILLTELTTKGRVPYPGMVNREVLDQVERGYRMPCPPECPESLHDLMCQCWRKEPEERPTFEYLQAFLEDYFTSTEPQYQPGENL

CCN(CC)CCOc1ccc(Nc2ncc3c(n2)N(C)C(=O)N(c2cc(NC(=O)c4ccc(C#N)cc4)ccc2Cl)C3)cc1 [Example 2-8, N-(4-Chloro-3-{7-[4-(2-diethylamino-ethoxy)-phenylamino]-1-methyl-2-oxo-1,4-dihydro-2H-pyrimido[4,5-d]pyrimidin-3-yl}-phenyl)-4-cyano-benzamide]
IC50: 1 nM

CCN(CC)CCOc1ccc(Nc2ncc3c(n2)N(C)C(=O)N(c2cc(NC(=O)C4CCCCCC4)ccc2Cl)C3)cc1 [Example 2-2, Cycloheptanecarboxylic acid (4-chloro-3-{7-[4-(2-diethylamino-ethoxy)-phenylamino]-1-methyl-2-oxo-1,4-dihydro-2H-pyrimido[4,5-d]pyrimidin-3-yl}-phenyl)-amide; compound with acetic acid]
IC50: 15 to 50 nM

CCN(CC)CCOc1ccc(Nc2ncc3c(n2)N(C)C(=O)N(c2cc(NC(=O)CCCc4ccccc4)ccc2Cl)C3)cc1 [Example 2-15, N-(4-Chloro-3-{7-[4-(2-diethylamino-ethoxy)-phenylamino]-1-methyl-2-oxo-1,4-dihydro-2H-pyrimido[4,5-d]pyrimidin-3-yl}-phenyl)-4-phenyl-butyramide]
IC50: 15 to 50 nM

CCN(CC)CCOc1ccc(Nc2ncc3c(n2)N(C)C(=O)N(c2cc(NC(=O)c4ccc(OC)cc4)ccc2Cl)C3)cc1 [Example 2-7, N-(4-Chloro-3-{7-[4-(2-diethylamino-ethoxy)-phenylamino]-1-methyl-2-oxo-1,4-dihydro-2H-pyrimido[4,5-d]pyrimidin-3-yl}-phenyl)-4-methoxy-benzamide]
IC50: 1 to 15 nM

CCN(CC)CCOc1ccc(Nc2ncc3c(n2)N(C)C(=O)N(c2cc(NC(=O)CCc4ccc(O)cc4)ccc2Cl)C3)cc1 [Example 2-12, N-(4-Chloro-3-{7-[4-(2-diethylamino-ethoxy)-phenylamino]-1-methyl-2-oxo-1,4-dihydro-2H-pyrimido[4,5-d]pyrimidin-3-yl}-phenyl)-3-(4-hydroxy-phenyl)-propionamide; compound with acetic acid]
IC50: 1 to 15 nM

CCN(CC)CCOc1ccc(Nc2ncc3c(n2)N(C)C(=O)N(c2cc(NC(=O)Cc4cccnc4)ccc2Cl)C3)cc1 [Example 2-21, N-(4-Chloro-3-{7-[4-(2-diethylamino-ethoxy)-phenylamino]-1-methyl-2-oxo-1,4-dihydro-2H-pyrimido[4,5-d]pyrimidin-3-yl}-phenyl)-2-pyridin-3-yl-acetamide]
IC50: 15 to 50 nM

CCN(CC)CCOc1ccc(Nc2ncc3c(n2)N(C)C(=O)N(c2cc(NC(=O)C=Cc4ccccc4)ccc2Cl)C3)cc1 [Example 2-16, N-(4-Chloro-3-{7-[4-(2-diethylamino-ethoxy)-phenylamino]-1-methyl-2-oxo-1,4-dihydro-2H-pyrimido[4,5-d]pyrimidin-3-yl}-phenyl)-3-phenyl-acrylamide]
IC50: 1 to 15 nM

CCN(CC)CCOc1ccc(Nc2ncc3c(n2)N(C)C(=O)N(c2cc(NC(=O)CCc4cccnc4)ccc2Cl)C3)cc1 [Example 2-23, N-(4-Chloro-3-{7-[4-(2-diethylamino-ethoxy)-phenylamino]-1-methyl-2-oxo-1,4-dihydro-2H-pyrimido[4,5-d]pyrimidin-3-yl}-phenyl)-3-pyridin-3-yl-propionamide; compound with acetic acid]
IC50: 1 to 15 nM

CCN(CC)CCOc1ccc(Nc2ncc3c(n2)N(C)C(=O)N(c2cc(NC(=O)c4ccc(-c5ccccc5)cc4)ccc2Cl)C3)cc1 [Example 1, Biphenyl-4-carboxylic acid (4-chloro-3-{7-[4-(2-diethylamino-ethoxy)-phenylamino]-1-methyl-2-oxo-1,4-dihydro-2H-pyrimido[4,5-d]pyrimidin-3-yl}-phenyl)-amide]
IC50: 1 to 15 nM

CCN(CC)CCOc1ccc(Nc2ncc3c(n2)N(C)C(=O)N(c2cc(NC(=O)c4ccccc4)ccc2Cl)C3)cc1 [Example 2-6, N-(4-Chloro-3-{7-[4-(2-diethylamino-ethoxy)-phenylamino]-1-methyl-2-oxo-1,4-dihydro-2H-pyrimido[4,5-d]pyrimidin-3-yl}-phenyl)-benzamide]
IC50: 2.4 nM
